{
  "source": "patent US11524941B2",
  "about": "“Pyrazole compounds as LSD1 inhibitors and applications thereof” (MEDSHINE DISCOVERY INC., priority 2020, dated 2022)",
  "system": "NCI-H1417 cells",
  "experiment": "Proliferation inhibitory activity against NCI-H1417 cells (CellTiter-Glo)",
  "assay_type": "cell-based",
  "settings": "Homo sapiens, 240 h, 10 days incubation, starting concentration 10 μM, read-out: IC50 (nM), NCI-H1417 cell proliferation inhibition",
  "method": "Experimental purpose: To detect the inhibitory activity of the compounds against NCI-H1417 cells.\nExperimental materials: RPMI 1640 medium, fetal bovine serum, Promega CellTiter-Glo reagent. The NCI-H1417 cell line was purchased from ATCC. Envision multilabel analyzer (PerkinElmer).\nExperimental method: The compounds were dissolved to 10 mM, and the compounds were diluted 5 times with DMSO in the compound plate. The starting concentration of the compound was 2 mM, diluted 3 times with Bravo to 10 concentrations. Echo was used to transfer 250 nL to the top and bottom double wells of a blank 384 cell plate, and 250 nL of DMSO/compound was added to a cell suspension of 1000 cells/50 μL per well, and the compounds were diluted 200 times, i.e. the starting concentration was 10 μM. Cell plates were incubated in a carbon dioxide incubator for 10 days. 25 μL of Promega CellTiter-Glo reagent per well was added to the cell plate, and the mixture was shaken for 10 minutes at room temperature to stabilize the luminescence signal. Readings were taken using a PerkinElmer Envision multilabel analyzer.\nData analysis: The equation (Max-Ratio)/(Max-Min)*100% was used to convert the original data into inhibition rate, the IC50 value can be obtained by curve fitting with four parameters. (derived from 205 mode in XLFIT5, iDBS)",
  "note": "Structures can show the parent of a compound that is named as a salt.",
  "data": [
    {"smiles": "CC(C)(O)Cn1nnc2cc(-c3cn(CC(=O)N4CCC[C@@H](N)C4)nc3-c3ccc(C#N)c(F)c3)ccc21", "note": "[Hydrochloride of compound 22]", "values": [
      {"measurement": "IC50", "result": 107, "unit": "nM"}
    ]}
  ]
}
